Measured values taken from ChEMBL document CHEMBL2396595, “New eudesmane sesquiterpenes from Alpinia oxyphylla and determination of their inhibitory effects on microglia” (Bioorg Med Chem Lett, 2013).
Calls of active or inactive are those of the source. The rule behind the calls is not given here.

Key:
BV-2 [1] = test: Neuroprotective activity in mouse BV2 cells assessed as increase of LPS-induced nitric oxide production at maximum non-toxic concentration treated 1 hr before LPS addition measured after 24 hrs by colorimetric analysis; assay type: functional, cell-based
BV-2 [2] = test: Neuroprotective activity in mouse BV2 cells assessed as inhibition of LPS-induced nitric oxide production at maximum non-toxic concentration treated 1 hr before LPS addition measured after 24 hrs by colorimetric analysis; assay type: functional, cell-based
[3] = Cytotoxicity against mouse BV2 cells assessed as maximum non-toxic concentration after 24 hrs by MTT assay; assay type: cell-based, BV-2
BV-2 [4] = test: Neuroprotective activity in mouse BV2 cells assessed as inhibition of LPS-induced TNFalpha production at maximum non-toxic concentration treated 1 hr before LPS addition measured after 24 hrs by ELISA; assay type: functional, cell-based
BV-2 [5] = test: Neuroprotective activity in mouse BV2 cells assessed as increase of LPS-induced TNFalpha production at maximum non-toxic concentration treated 1 hr before LPS addition measured after 24 hrs by ELISA; assay type: functional, cell-based

For `CC(=O)[C@H]1CC[C@@]2(C)CC(=O)C=C(C)[C@@]2(O)C1`, the Activity (BV-2 [1]) was “Active”, the inhibition (BV-2 [2]) was “inactive” and the MNTC at 24 h [3] was 100 µM.
With `Cc1ccc2c(c1O)[C@H](C(C)C)CCC2=O` the inhibition (BV-2 [2]) was “Active” and the MNTC at 24 h [3] was 100 µM.
For `CC(C)[C@H]1CCC(=O)C2=C1[C@H](O)[C@](C)(O)CC2` [OXYPHYLLENODIOL B], the inhibition (BV-2 [2]) was “Active” and the MNTC at 24 h [3] was 1 µM.
For `CC1=C2C=C(C(C)(O)CO)CC[C@]2(C)CCC1=O` (stereo not given in full) [OXYPHYLLANENE F], the inhibition (BV-2 [2]) was “inactive” and the MNTC at 24 h [3] was 0.1 µM.
For `C[C@@]12CCC(=O)C=C1[C@](C)(O)[C@H](O)CC2` [OXYPHYLLENONE B], the inhibition (BV-2 [2]) was “inactive” and the MNTC at 24 h [3] was 10 µM.
With `Cc1ccc2c(c1)[C@H](C(C)C)CCC2=O` [(4S)-10-NOR-CALAMENEN-10-ONE] the Activity (BV-2 [1]) was “Active”, the inhibition (BV-2 [2]) was “inactive” and the MNTC at 24 h [3] was 0.1 µM.
In the case of `CC(=O)C1=CC2=C(C)C(=O)CC[C@@]2(C)CC1`, the Activity (BV-2 [1]) is reported as “Active”, the inhibition (BV-2 [2]) is reported as “inactive” and the MNTC at 24 h [3] is reported as 100 µM.
In the case of `C[C@@]12CCC(=O)C=C1[C@@](C)(O)[C@H](O)CC2` [OXYPHYLLENONE A], the inhibition (BV-2 [2]) is reported as “inactive”, the MNTC at 24 h [3] is reported as 100 µM and the inhibition (BV-2 [4]) is reported as “Active”.
With `CC1=CC(=O)C[C@@]2(C)C[C@H]3OC(=O)C(C)=C3C[C@H]12` the Activity (BV-2 [1]) was “Active”, the inhibition (BV-2 [2]) was “inactive” and the MNTC at 24 h [3] was 100 µM.
With `C=C(C)[C@]1(O)CC[C@]2(C)CC(=O)C=C(C)[C@H]2C1` the Activity (BV-2 [5]) was “Active”, the inhibition (BV-2 [2]) was “inactive” and the MNTC at 24 h [3] was 0.1 µM.
For `C=C(C)[C@@H]1CCC2=CC(=O)C[C@@H](C)[C@]2(C)C1` [NOOTKATONE], the Activity (BV-2 [5]) was “Active”, the inhibition (BV-2 [2]) was “inactive” and the MNTC at 24 h [3] was 0.1 µM.
With `C=C(C)[C@@H]1CC(=O)C2=CC(=O)C[C@@H](C)[C@]2(C)C1` the Activity (BV-2 [5]) was “Active”, the inhibition (BV-2 [2]) was “Active” and the MNTC at 24 h [3] was 0.1 µM.
In the case of `C=C(C)[C@@H]1CCC2=C[C@@H](O)C[C@@H](C)[C@]2(C)C1` [BETA-NOOTKATOL], the inhibition (BV-2 [2]) is reported as “Active” and the MNTC at 24 h [3] is reported as 30 µM.
With `C[C@@H]1CC(=O)C=C2CC[C@@H]([C@](C)(O)CO)C[C@]21C` [(11S)-NOOTKATONE-11,12-DIOL] the inhibition (BV-2 [2]) was “inactive” and the MNTC at 24 h [3] was 30 µM.
With `COc1ccc2c(c1)c(CC(=O)O)c(C)n2C(=O)c1ccc(Cl)cc1` [INDOMETHACIN] the MNTC at 24 h [3] was 10 µM.
For `CC(C)[C@@H]1CCC(=O)C2=C1[C@H](O)[C@](C)(O)CC2` [OXYPHYLLENODIOL A], the inhibition (BV-2 [2]) was “inactive” and the MNTC at 24 h [3] was 100 µM.
For `N=C(N)NN` [PIMAGEDINE], the MNTC at 24 h [3] was 1000 µM.
